Molecules are shown by their SMILES.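 Five compound concentrations were applied to cells in 96-well plates for 48 hours; endpoints were derived by simple linear interpolation of the resulting dose-response curve. Abbreviation: GI50, concentration required for 50% inhibition of growth.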 Calls of active or inactive are those of the source. No stated cut-off is given here; in the data, active = GI50 up to about 1.1 µM and inactive = higher. Some results are limits rather than exact numbers.

Some test systems named below: HOP-62; Malme-3M; OVCAR-3; OVCAR-5; TK-10; EKVX; K562; HT-29; OVCAR-8; UACC-62; HL-60; DMS-273; UO-31; NCI-H522; OVCAR-4; SNB-75; SK-MEL-5.
Common to all, as to assay: inhibition of tumour cell growth, NCI panel, 48 h

With `O=c1ncc(F)cn1C1OC(CO)C(O)C1O` (stereo not given), the GI50 in the assay on HOP-62 is > 30.7 µM (inactive); with Malme-3M, > 29.8 µM (inactive); in the assay on OVCAR-3, > 26.7 µM (inactive); in the assay on OVCAR-5, > 52 µM (inactive); in the assay on TK-10, > 69.2 µM (inactive); with EKVX, > 100 µM (inactive). In addition, the GI50 in the assay on K562 is 7.38 µM (inactive); in the assay with HT-29, > 30.7 µM (inactive); in the assay with OVCAR-8, > 27.7 µM (inactive); in the assay on UACC-62, > 37.6 µM (inactive); in the assay on HL-60 it was 19.3 µM (inactive); in the assay on DMS-273, 16.7 µM (inactive). Besides, the GI50 with UO-31 is > 100 µM (inactive); in the assay with NCI-H522, > 32.7 µM (inactive); in the assay on OVCAR-4, > 80.5 µM (inactive); with SNB-75 it was 6.24 µM (inactive).

With `O=C(C#Cc1ccccc1)Nc1ccccc1CC(c1c[nH]c2ccccc12)c1c[nH]c2ccccc12`, the GI50 with HOP-62 was 39.6 µM (inactive); in the assay with Malme-3M, 25.6 µM (inactive); in the assay with OVCAR-3, 9.44 µM (inactive); in the assay on SK-MEL-5, 17.9 µM (inactive); in the assay with TK-10, 31.5 µM (inactive); with EKVX it was 12.3 µM (inactive). Besides, the GI50 in the assay with K562 was 4.47 µM (inactive); in the assay on HT-29, 10.3 µM (inactive); in the assay on OVCAR-8 it was 8.32 µM (inactive); with UACC-62, 7.5 µM (inactive); with DMS-273, 11.3 µM (inactive); in the assay on UO-31 it was 13.5 µM (inactive). Also, the GI50 with NCI-H522 was 11.6 µM (inactive); with SNB-75 it was 5.9 µM (inactive).

As to `CCC1NCC(=O)c2c1[nH]c1ccccc21` (stereo not given), the GI50 with Malme-3M, in the assay on OVCAR-3, in the assay with SK-MEL-5, in the assay on OVCAR-5, in the assay with TK-10 and with EKVX was > 100 µM (inactive) in each case. Moreover, the GI50 in the assay with K562, with HT-29, in the assay on OVCAR-8, in the assay with UACC-62, in the assay on HL-60 and in the assay on DMS-273 was > 100 µM (inactive) each time. Also, the GI50 is > 100 µM (inactive) in the assay on UO-31, 91.6 µM (inactive) in the assay on NCI-H522, > 100 µM (inactive) with OVCAR-4 and > 100 µM (inactive) in the assay with SNB-75.

For the compound `CCCOC(=O)C1CCC(=O)N1C(=O)C(C)Cl` (stereo not given), the GI50 with HOP-62, with Malme-3M, in the assay on OVCAR-3, in the assay on SK-MEL-5, in the assay with OVCAR-5 and in the assay with TK-10 was > 100 µM (inactive) throughout. Further, the GI50 in the assay with EKVX, with K562, in the assay on HT-29, in the assay on OVCAR-8, in the assay on UACC-62 and in the assay on HL-60 was > 100 µM (inactive) throughout. Moreover, the GI50 with DMS-273, with UO-31, in the assay on NCI-H522, in the assay on OVCAR-4 and with SNB-75 was > 100 µM (inactive) throughout.

On to `O=C(O)CNCc1c2ccccc2[n+]([O-])c2ccccc12`, for which the GI50 is > 100 µM (inactive) in the assay on HOP-62; > 100 µM (inactive) with Malme-3M; > 100 µM (inactive) in the assay on OVCAR-3; 48.1 µM (inactive) in the assay with SK-MEL-5; > 100 µM (inactive) with OVCAR-5; > 100 µM (inactive) in the assay with TK-10. In addition, the GI50 in the assay with EKVX was > 100 µM (inactive); in the assay on K562, 38.2 µM (inactive); in the assay with HT-29 it was 57.1 µM (inactive); with OVCAR-8, 80.5 µM (inactive); in the assay with UACC-62, 58.1 µM (inactive); in the assay on HL-60, 33.5 µM (inactive). Besides, the GI50 is 46.7 µM (inactive) in the assay on DMS-273; 21.1 µM (inactive) in the assay with UO-31; 46.1 µM (inactive) in the assay on NCI-H522; 49.3 µM (inactive) in the assay on OVCAR-4; 34.5 µM (inactive) with SNB-75.

In the case of `CC1CN1P1(N2CC2C)=NP(N2CC2C)(N2CC2C)=NP(N2CC2C)(N2CC2C)=N1` (stereo not given), the GI50 in the assay with Malme-3M, in the assay with OVCAR-3, in the assay with SK-MEL-5, in the assay on TK-10, in the assay on EKVX and with K562 was > 50 µM (inactive) throughout. For the same compound, the GI50 in the assay on HT-29, with OVCAR-8, in the assay with HL-60, with DMS-273, with UO-31 and with NCI-H522 was > 50 µM (inactive) in each case. For the same compound, the GI50 in the assay on OVCAR-4 and in the assay on SNB-75 was > 50 µM (inactive) in each case.

For `COc1ccc(OC)c(NC(=O)C2=C(C)NC(C)=C(C(=O)Nc3cc(OC)ccc3OC)C2c2ccco2)c1`, the GI50 with HOP-62 is > 100 µM (inactive); in the assay with Malme-3M, > 100 µM (inactive); in the assay with OVCAR-3, > 100 µM (inactive); in the assay on SK-MEL-5 it was 51.3 µM (inactive); in the assay with OVCAR-5 it was > 100 µM (inactive); with TK-10, > 100 µM (inactive). For the same compound, the GI50 with EKVX was > 100 µM (inactive); in the assay on K562, > 100 µM (inactive); in the assay with HT-29 it was > 100 µM (inactive); in the assay with OVCAR-8, > 100 µM (inactive); with UACC-62 it was > 100 µM (inactive); in the assay with DMS-273, 95.9 µM (inactive). The GI50 in the assay on UO-31, with NCI-H522 and with SNB-75 was > 100 µM (inactive) throughout.

Consider `COc1ccc(OC)c(/C=C2\CCc3ccccc3C2=O)c1`, for which the GI50 in the assay on HOP-62 was 2.47 µM (inactive); in the assay with Malme-3M, 3.72 µM (inactive); in the assay on OVCAR-3, 2.71 µM (inactive); in the assay on SK-MEL-5, 3.17 µM (inactive); with OVCAR-5, 4.14 µM (inactive); in the assay with TK-10, 5.16 µM (inactive). For the same compound, the GI50 in the assay with EKVX was 3.2 µM (inactive); with K562 it was 0.391 µM (active); in the assay on HT-29, 0.735 µM (active); in the assay on OVCAR-8, 4.16 µM (inactive); with UACC-62 it was 1.76 µM (inactive); with HL-60, 1.68 µM (inactive). The GI50 is 1.12 µM (active) with DMS-273, 1.77 µM (inactive) in the assay with NCI-H522, 6.52 µM (inactive) in the assay on OVCAR-4 and 1.1 µM (active) in the assay with SNB-75.

Consider `C[C@]12CC[C@H](O)CC1=CC[C@@H]1C2CC[C@]2(C)C(=O)N(N)C(=O)CC12` (stereo not given in full), for which the GI50 in the assay on HOP-62, in the assay with Malme-3M, in the assay on OVCAR-3, in the assay with SK-MEL-5, with OVCAR-5 and with TK-10 was > 100 µM (inactive) each time. The GI50 in the assay with EKVX, in the assay on K562, with HT-29, in the assay with OVCAR-8, with UACC-62 and in the assay on HL-60 was > 100 µM (inactive) in each case. For the same compound, the GI50 in the assay with DMS-273 was > 100 µM (inactive); in the assay on UO-31, > 100 µM (inactive); in the assay on NCI-H522 it was > 100 µM (inactive); with OVCAR-4, > 100 µM (inactive); in the assay on SNB-75 it was 5.38 µM (inactive).

Turning to `COc1ccc(/C(Cl)=C/c2cc(OC)ccc2OC)cc1`, the GI50 is > 100 µM (inactive) in the assay with HOP-62; 93.3 µM (inactive) in the assay with Malme-3M; 64.7 µM (inactive) in the assay on SK-MEL-5; > 100 µM (inactive) in the assay with EKVX; 47 µM (inactive) with K562; 62.2 µM (inactive) in the assay with HT-29. The GI50 is 61.9 µM (inactive) in the assay on OVCAR-8; 38.4 µM (inactive) with UACC-62; 28.4 µM (inactive) in the assay with HL-60; 35.2 µM (inactive) in the assay on DMS-273; 98.9 µM (inactive) in the assay on UO-31; 46.9 µM (inactive) with NCI-H522. The values for the GI50 in the assay on OVCAR-4 and with SNB-75 were > 100 µM (inactive) and 40.1 µM (inactive), respectively.

As for `CCCCN(CCCC)CC(C(=O)Nc1ccc([N+](=O)[O-])cc1[N+](=O)[O-])/C(C)=N\NC(=S)NN` (stereo not given), the GI50 in the assay with HOP-62 is > 100 µM (inactive); with Malme-3M it was > 100 µM (inactive); in the assay with OVCAR-3, 84.3 µM (inactive); in the assay with SK-MEL-5, > 100 µM (inactive); with OVCAR-5, > 100 µM (inactive); in the assay with TK-10, > 100 µM (inactive). Besides, the GI50 was 65.6 µM (inactive) in the assay on EKVX; 40.7 µM (inactive) in the assay on K562; > 100 µM (inactive) with HT-29; > 100 µM (inactive) in the assay on OVCAR-8; > 100 µM (inactive) in the assay with UACC-62; 46 µM (inactive) in the assay with HL-60. Also, the GI50 is > 100 µM (inactive) in the assay with DMS-273, 26.9 µM (inactive) in the assay on UO-31, 25.5 µM (inactive) in the assay with NCI-H522 and > 100 µM (inactive) with SNB-75.

For `Cc1ccc(O)c(/N=N/c2ccc(S(=O)(=O)O)cc2)n1`, the GI50 in the assay with SK-MEL-5 is > 100 µM (inactive); in the assay with TK-10, > 100 µM (inactive); in the assay on EKVX, 21 µM (inactive); in the assay with K562, > 100 µM (inactive); with OVCAR-8, > 100 µM (inactive); in the assay on UACC-62 it was > 100 µM (inactive). Further, the GI50 in the assay on HL-60, with DMS-273, in the assay on UO-31 and in the assay on NCI-H522 was > 100 µM (inactive) in each case.

For `Cc1c(O)c(=O)ccn1CCN`, the GI50 in the assay on Malme-3M, with OVCAR-5, with TK-10, in the assay with EKVX, in the assay on K562 and in the assay with HT-29 was > 100 µM (inactive) in each case. Also, the GI50 in the assay with OVCAR-8, with UACC-62, with DMS-273, in the assay on UO-31, in the assay with NCI-H522 and in the assay with OVCAR-4 was > 100 µM (inactive) each time. The GI50 in the assay with SNB-75 was > 100 µM (inactive).

These data come from ChEMBL document CHEMBL1201862, “PubChem BioAssay data set” (2004).
